In paper PMC4965013, “Open Source Drug Discovery with the Malaria Box Compound Collection for Neglected Diseases and Beyond” (PLoS Pathogens, 2016):
Where two headings read alike, the source gives them in different places.

Assays:
P. falciparum 3D7 = experiment: [3H]-hypoxanthine growth inhibition, modified HCO3- or O2; type: cell-based; conditions: for IC50: Plasmodium falciparum
[1] = tested on: P. falciparum 3D7 trophozoites; experiment: Metabolomic fingerprint profiling LC-MS; type: cell-based, Plasmodium falciparum; design: UDP-D-glucose / ADP-D-glucose: unit not given here
P. falciparum = experiment: EC50 listed in S2 Table Metabolomics (used to set the concentration tested); type: cell-based; conditions: Plasmodium falciparum; EC50 used for Factor_XEC50 in metabolomics; read-out: EC50_nM
[2] = metabolite level change after treatment

Which results are given for `CCN(CC)CCNc1ncnc2c1[nH]c1ccc(Cl)cc12` [MMV396703]?
fold change (IC50reduced/IC50normal) (P. falciparum 3D7): 2.6; IC50 (P. falciparum 3D7; 3D7, read-out: P. falciparum 3D7 IC50 HCO3- (2g/L), standard media): 326 nM; IC50 (P. falciparum 3D7; 3D7, HCO3- reduced media, read-out: P. falciparum 3D7 IC50 HCO3- reduced): 851 nM; Acetyllysine ([1]; S2 Table Metabolomics, metabolite Acetyllysine): -0.2691; N-acetyl-L-ornithine ([1]; S2 Table Metabolomics, metabolite N-acetyl-L-ornithine): -0.2168; N-carbamoyl-L-aspartate ([1]; S2 Table Metabolomics, metabolite N-carbamoyl-L-aspartate): 1.148; NADPH ([1]; S2 Table Metabolomics, metabolite NADPH): -0.09375; dAMP ([1]; S2 Table Metabolomics, metabolite dAMP): 0.7031; dCMP ([1]; S2 Table Metabolomics, metabolite dCMP): -0.6066; dTDP ([1]; S2 Table Metabolomics, metabolite dTDP): 0.1301; dTMP ([1]; S2 Table Metabolomics, metabolite dTMP): 0.2768; dTTP ([1]; S2 Table Metabolomics, metabolite dTTP): -0.448; dihydroorotate ([1]; S2 Table Metabolomics, metabolite dihydroorotate): 1.736; orotate ([1]; S2 Table Metabolomics, metabolite orotate): -0.221; DLH ([1]; S2 Table Metabolomics, peptide DLH): -2.825; DLS/SDL/SID ([1]; S2 Table Metabolomics, peptide DLS/SDL/SID): -3.008; PD ([1]; S2 Table Metabolomics, peptide PD): -0.5054; PEE ([1]; S2 Table Metabolomics, peptide PEE): -0.1284; PVNF ([1]; S2 Table Metabolomics, peptide PVNF): -2.309; 3-phosphoglycerate ([1]; metabolite 3-phosphoglycerate, S2 Table Metabolomics): -0.08336; ADP-D-glucose ([1]; metabolite ADP-D-glucose, S2 Table Metabolomics): -0.05094; ATP ([1]; metabolite ATP, S2 Table Metabolomics): -0.4333; CDP ([1]; metabolite CDP, S2 Table Metabolomics, change in metabolite level after compound treatment): 0.1613; D-sedoheptulose-1/7-phosphate ([1]; metabolite D-sedoheptulose-1/7-phosphate, S2 Table Metabolomics, change in metabolite level after compound treatment): 0.02906; FAD ([1]; metabolite FAD, S2 Table Metabolomics): -0.01537; GMP ([1]; metabolite GMP, S2 Table Metabolomics, change in metabolite level after compound treatment): -0.5327; NAD+ ([1]; metabolite NAD+, S2 Table Metabolomics): 0.6915; NADP+ ([1]; metabolite NADP+, S2 Table Metabolomics): -0.1108; Octoluse Bisphosphate ([1]; metabolite Octoluse Bisphosphate, S2 Table Metabolomics, change in metabolite level after compound treatment): -0.5568; Pyroglutamic acid ([1]; metabolite Pyroglutamic acid, S2 Table Metabolomics): -0.07773; UDP-D-glucose ([1]; metabolite UDP-D-glucose, S2 Table Metabolomics): 0.04104; UDP-D-glucuronate ([1]; metabolite UDP-D-glucuronate, S2 Table Metabolomics): -0.19; UDP-N-acetyl-glucosamine ([1]; metabolite UDP-N-acetyl-glucosamine, S2 Table Metabolomics): 0.01931; UDP ([1]; metabolite UDP, S2 Table Metabolomics, change in metabolite level after compound treatment): 0.1008; UMP ([1]; metabolite UMP, S2 Table Metabolomics, change in metabolite level after compound treatment): -0.1897; UTP ([1]; metabolite UTP, S2 Table Metabolomics, change in metabolite level after compound treatment): -0.3667; a-ketoglutarate ([1]; metabolite a-ketoglutarate, S2 Table Metabolomics): -0.2121; citrate/isocitrate ([1]; metabolite citrate/isocitrate, S2 Table Metabolomics, change in metabolite level after compound treatment): -0.02741; cytidine ([1]; metabolite cytidine, S2 Table Metabolomics): -0.169; dATP ([1]; metabolite dATP, S2 Table Metabolomics): -0.3924; dGMP/AMP ([1]; metabolite dGMP/AMP, S2 Table Metabolomics, change in metabolite level after compound treatment): 0.4109; fumarate ([1]; metabolite fumarate, S2 Table Metabolomics, change in metabolite level after compound treatment): 0.899; glucose-1/6-phosphate ([1]; metabolite glucose-1/6-phosphate, S2 Table Metabolomics, change in metabolite level after compound treatment): 0.3195; glycerate ([1]; metabolite glycerate, S2 Table Metabolomics, change in metabolite level after compound treatment): 0.2766; guanine ([1]; metabolite guanine, S2 Table Metabolomics, change in metabolite level after compound treatment): 0.5966; guanosine ([1]; metabolite guanosine, S2 Table Metabolomics, change in metabolite level after compound treatment): 0.5739; hypoxanthine ([1]; metabolite hypoxanthine, S2 Table Metabolomics): -0.03794; indole ([1]; metabolite indole, S2 Table Metabolomics): -0.04008; inosine ([1]; metabolite inosine, S2 Table Metabolomics, change in metabolite level after compound treatment): 0.01185; 2_3-Diphosphoglyceric acid [1, 2]: -0.2785; 4-phosphopantothenate [1, 2]: 0.1971; 6-phospho-D-gluconate [1, 2]: -0.09007; FMN [1, 2]: -0.3587; IMP [1, 2]: 0.3624; Pyrophosphate [1, 2]: -0.1133; Sedoheptoluse bisphosphate [1, 2]: 0.1128; cyclic-AMP [1, 2]: -0.07748; glutathione disulfide [1, 2]: -0.04771; lactate [1, 2]: -0.382; myo-inositol [1, 2]: -0.001865; nicotinate ([1]; metabolite nicotinate, S2 Table Metabolomics): 0.1485; ornithine ([1]; metabolite ornithine, S2 Table Metabolomics): 0.2269; phosphoenolpyruvate ([1]; metabolite phosphoenolpyruvate, S2 Table Metabolomics): -0.03548; pyruvate ([1]; metabolite pyruvate, S2 Table Metabolomics, change in metabolite level after compound treatment): -0.182; ribose-phosphate ([1]; metabolite ribose-phosphate, S2 Table Metabolomics): -0.3286; sarcosine/alanine ([1]; metabolite sarcosine/alanine, S2 Table Metabolomics, change in metabolite level after compound treatment): -0.1738; sn-glycerol-3-phosphate ([1]; metabolite sn-glycerol-3-phosphate, S2 Table Metabolomics): -0.2165; succinate/methylmalonic acid ([1]; metabolite succinate/methylmalonic acid, S2 Table Metabolomics, change in metabolite level after compound treatment): -0.02068; uridine ([1]; metabolite uridine, S2 Table Metabolomics, change in metabolite level after compound treatment): -0.05174; xanthosine ([1]; metabolite xanthosine, S2 Table Metabolomics, change in metabolite level after compound treatment): -0.494; EC50 (P. falciparum): 406 nM
